Key:
[1] = biological target: T1, NAD-dependent protein deacetylase sirtuin-1 (Homo sapiens) (UniProt Q96EB6); experiment: Activation of human N-terminal hexa-histidine tagged SIRT1 expressed in Escherichia coli BL21 (DE3) using peptide substrate by fluorescence polarization assay; conditions: filed as activator
T1 sequence (whole entry): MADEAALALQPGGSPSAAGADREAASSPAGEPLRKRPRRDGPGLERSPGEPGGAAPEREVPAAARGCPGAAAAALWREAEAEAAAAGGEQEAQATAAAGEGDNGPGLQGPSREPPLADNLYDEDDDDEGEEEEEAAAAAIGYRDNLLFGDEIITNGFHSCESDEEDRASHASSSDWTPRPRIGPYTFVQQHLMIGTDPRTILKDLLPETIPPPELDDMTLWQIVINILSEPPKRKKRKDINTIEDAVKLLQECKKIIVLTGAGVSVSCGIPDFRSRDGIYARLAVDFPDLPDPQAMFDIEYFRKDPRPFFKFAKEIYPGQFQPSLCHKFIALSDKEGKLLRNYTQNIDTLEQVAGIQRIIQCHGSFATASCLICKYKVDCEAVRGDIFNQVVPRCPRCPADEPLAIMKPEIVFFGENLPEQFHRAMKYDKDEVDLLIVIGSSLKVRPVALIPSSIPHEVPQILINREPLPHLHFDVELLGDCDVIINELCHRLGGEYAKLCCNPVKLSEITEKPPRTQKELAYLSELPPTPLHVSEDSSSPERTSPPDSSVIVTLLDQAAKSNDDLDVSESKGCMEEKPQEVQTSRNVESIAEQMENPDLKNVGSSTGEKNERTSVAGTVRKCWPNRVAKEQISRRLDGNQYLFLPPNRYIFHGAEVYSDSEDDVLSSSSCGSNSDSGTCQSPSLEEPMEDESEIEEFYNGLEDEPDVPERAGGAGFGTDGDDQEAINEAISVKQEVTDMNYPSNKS

[2] = biological target: T1, NAD-dependent protein deacetylase sirtuin-1 (Homo sapiens); experiment: Activation of human N-terminal hexa-histidine tagged SIRT1 expressed in Escherichia coli BL21 (DE3) using peptide substrate by fluorescence polarization assay relative to control; conditions: filed as activator
Homo sapiens = organism: Homo sapiens; experiment: Activation of human G6PD canton (R459L) mutant assessed as restoration of activity using G6P as substrate incubated for 3 hrs d by substrate addition and mesured after 2.5 mins by diaphorase-coupled enzyme assay relative to wild type G6PD activity percentage
[3] = Activation of human G6PD canton (R459L) mutant assessed as restoration of activity using G6P as substrate incubated for 3 hrs d by substrate addition and mesured after 2.5 mins by diaphorase-coupled enzyme assay
[4] = biological target: T2, Serine/threonine-protein kinase ULK1 (Homo sapiens) (UniProt O75385); experiment: Agonist activity at ULK1 (unknown origin) expressed in HEK293T cells at 100 nM incubated for 60 mins by ADP-Glo luminescence assay relative to control; type: cell-based; conditions: filed as agonist
T2 sequence (whole entry): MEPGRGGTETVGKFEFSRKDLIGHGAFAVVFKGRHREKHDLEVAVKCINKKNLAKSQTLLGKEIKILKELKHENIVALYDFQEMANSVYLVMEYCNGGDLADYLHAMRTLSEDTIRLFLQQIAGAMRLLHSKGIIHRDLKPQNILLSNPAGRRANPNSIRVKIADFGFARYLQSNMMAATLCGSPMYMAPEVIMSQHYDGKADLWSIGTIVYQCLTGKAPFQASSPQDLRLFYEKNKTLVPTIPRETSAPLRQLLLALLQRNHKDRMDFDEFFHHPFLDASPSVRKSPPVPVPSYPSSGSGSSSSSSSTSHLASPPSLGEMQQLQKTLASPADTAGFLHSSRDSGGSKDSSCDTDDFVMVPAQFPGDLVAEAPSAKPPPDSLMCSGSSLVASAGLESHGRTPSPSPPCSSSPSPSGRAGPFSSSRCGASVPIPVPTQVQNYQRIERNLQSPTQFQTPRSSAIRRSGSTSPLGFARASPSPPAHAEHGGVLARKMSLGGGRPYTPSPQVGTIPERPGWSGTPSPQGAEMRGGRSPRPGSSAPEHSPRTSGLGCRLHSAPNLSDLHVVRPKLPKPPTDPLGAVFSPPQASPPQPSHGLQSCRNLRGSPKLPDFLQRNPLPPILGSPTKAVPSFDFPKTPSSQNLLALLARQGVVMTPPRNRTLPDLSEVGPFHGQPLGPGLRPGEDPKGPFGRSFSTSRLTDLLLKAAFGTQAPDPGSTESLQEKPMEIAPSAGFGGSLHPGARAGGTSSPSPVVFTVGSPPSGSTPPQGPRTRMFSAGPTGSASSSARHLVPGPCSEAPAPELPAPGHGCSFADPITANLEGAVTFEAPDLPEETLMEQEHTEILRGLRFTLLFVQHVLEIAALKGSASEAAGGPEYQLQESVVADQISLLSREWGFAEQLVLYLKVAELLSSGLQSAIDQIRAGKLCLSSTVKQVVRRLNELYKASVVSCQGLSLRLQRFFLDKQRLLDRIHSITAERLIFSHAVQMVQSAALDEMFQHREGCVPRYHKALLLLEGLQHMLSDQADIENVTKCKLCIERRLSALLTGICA

O=C(Nc1ccccc1-c1cn2c(CN3CCNCC3)csc2n1)c1cnc2ccccc2n1
EC1.5 [1]: 0.16 µM | Emax [2]: 781%

c1ccc2c(CCNCCSSCCNCCc3c[nH]c4ccccc34)c[nH]c2c1
Activity (Homo sapiens): 30% | EC50 [3]: 3 µM

Oc1ccc(/C=C/c2cc(O)cc(O)c2)cc1
Emax [2]: 201%

CC(C)CN(CC(=O)N1CCN(CC(OCc2ccc3ccccc3c2)c2ccc(Cl)cc2Cl)CC1)CC(C)C (stereo unspecified)
Activity [4]: 243%
